Values after ≈ are worked out from the molar mass of the structure shown.

The conditions of the data set: buffer; pH 7.4; 200.0 µM.
One may read the kinetic solubility as solubility judged after dilution from a stock solution rather than from solid. `COc1cc2[nH]c(=S)n(C3CC3)c(=O)c2cc1OC` displayed a solubility (kinetic) of 7.6 µg/mL (≈ 27.3 µM). The same measure for `O=C(COc1ncnc2ccccc12)NCCc1ccccc1`: 44.8 µg/mL (≈ 146 µM); for `CS(=O)(=O)c1ccc(C(=O)N2CC(=O)Nc3ccccc32)cc1`: more than 49.6 µg/mL; for `CS(=O)(=O)c1ccc2nc(NC(=O)c3ccc(N4C(=O)CCC4=O)cc3)sc2c1`: 0.3 µg/mL (≈ 0.699 µM). `CN(CC(=O)NCCc1ccc(S(N)(=O)=O)cc1)CC(=O)Nc1ccc(Cl)cc1` had a kinetic solubility of more than 65.8 µg/mL.

`CC(=O)OCc1c(-c2ccccc2)c2cc([N+](=O)[O-])ccc2n1C`: the solubility (kinetic) is 0.7 µg/mL (≈ 2.16 µM). The same measure for `Cc1ccc2c(c1)CCCN2C(=O)CSc1ccccc1`: 19.5 µg/mL (≈ 65.6 µM). Take `Cc1cccc(C)c1NC(=S)NCCSc1ccc(Cl)cc1`: the solubility (kinetic) came to 3.3 µg/mL (≈ 9.4 µM).

Consider `COc1ccc(/C=C/C(=O)OCC(=O)NC(C)CCc2ccccc2)cc1` (stereo unspecified), for which the kinetic solubility came to 3.7 µg/mL (≈ 10.1 µM).

In turn, `O=C(CN1C(=O)NC2(CCCC2)C1=O)NCc1ccccc1` gave a solubility (kinetic) of more than 45.2 µg/mL.

Take `Cc1cccc(C)c1NC(=O)CCCCCC1NC(=O)NC1C` (stereo unspecified): the kinetic solubility was more than 47.6 µg/mL. The same measure for `COc1ccc(OCCSc2nc(N)cc(=O)[nH]2)cc1`: 20.7 µg/mL (≈ 70.6 µM). In turn, `O=C1c2ccccc2C(O)(c2ccccc2)N1CCc1ccccc1` (stereo unspecified) showed a kinetic solubility of 1.3 µg/mL (≈ 3.95 µM).

The molecule `CCCC12CN3CC(C)(CN(C1)C3c1cccs1)C2=O` (stereo unspecified) displayed a kinetic solubility of 39.1 µg/mL (≈ 135 µM). The same measure for `COc1ccc(C)cc1N(CC(=O)N1CCOCC1)S(C)(=O)=O`: more than 51.4 µg/mL.

`CCCOc1ccc(C(=O)NCC(C)(C)N2CCOCC2)cc1` showed a solubility (kinetic) of more than 48.1 µg/mL.

For `CCOC(=O)c1ccc(N2C(=O)c3cccc4c(C(=O)O)ccc(c34)C2=O)cc1`, the kinetic solubility was found to be 25 µg/mL (≈ 64.2 µM). `Cc1cccc2c(=O)cc(C(F)(F)F)[nH]c12` gave a kinetic solubility of more than 34.1 µg/mL. In turn, `C=CCNC(=S)Nc1ccc(Cl)cc1F` returned a solubility (kinetic) of more than 36.7 µg/mL. Then `CCN(C(=S)Nc1ccc(OC(F)F)cc1)C1CCCCC1`, with 5.4 µg/mL (≈ 16.4 µM); and `COc1ccc(NC(=O)C2CCCN(S(C)(=O)=O)C2)cc1Cl` (stereo unspecified), with 8.4 µg/mL (≈ 24.2 µM).

In turn, `Cc1cc(C(=O)NCC2COc3ccccc3O2)c2ccccc2n1` (stereo unspecified) gave a solubility (kinetic) of 9.3 µg/mL (≈ 27.8 µM). The solubility kinetic values of the last two molecules are within 1.5-fold of each other.

Regarding `O=C(CSc1ncccc1C(=O)O)c1cccc(C(F)(F)F)c1`, the kinetic solubility is more than 51.2 µg/mL. The same measure for `Cn1c(CO)cnc1SCC(=O)c1ccc(F)cc1`: more than 42 µg/mL; for `COc1ccc(CCn2c(C)c(C(C)=O)c(C(C)=O)c2C)cc1OC`: more than 51.5 µg/mL; for `Cc1cccc(NC(=O)N2CCC(NC(=O)C3CCCCC3)CC2)c1`: 1.6 µg/mL (≈ 4.66 µM).

In turn, `O=C1N(Cc2ccccc2)c2ccc(Cl)cc2C12OCCO2` came in with a solubility (kinetic) of 9 µg/mL (≈ 28.5 µM). Against the preceding molecule, the solubility kinetic is about 5.6-fold higher.

In turn, `Cc1c(C(=O)N2CCC2)oc2ccc(Br)cc12` had a solubility (kinetic) of 19.5 µg/mL (≈ 66.3 µM). Then `O=Cc1cn(Cc2c(F)cccc2Cl)c2ccccc12`, with 5.6 µg/mL (≈ 19.5 µM). `O=[N+]([O-])c1cccc(Nc2c3ccccc3nc3ccccc23)c1` had a kinetic solubility of 2.8 µg/mL (≈ 8.88 µM). For the molecule `COc1ccccc1C/C(N)=N/OC(=O)c1cccs1`, the kinetic solubility is 42.8 µg/mL (≈ 147 µM). Compared with the last molecule, the solubility kinetic is about 15-fold higher.

On to `Cc1noc(C)c1C(=O)OC(C)C(=O)N1CCc2ccccc21` (stereo unspecified), for which the kinetic solubility turned out to be 6 µg/mL (≈ 19.1 µM). Take `COC(=O)C1=C(N)Oc2cc(C)[nH]c(=O)c2C1c1ccccc1OC` (stereo unspecified): the solubility (kinetic) was found to be 46.5 µg/mL (≈ 136 µM). In the case of `CC1=C(Cl)C2=NS(=O)(=O)CCN2C=C1Cl`, the kinetic solubility is more than 40.1 µg/mL. Then `Cc1cccc2cc(/C=C/C(=O)c3ccco3)c(Cl)nc12`, with 3.9 µg/mL (≈ 13.1 µM).

As for `CCOC(=O)CCn1cc(F)c(=O)[nH]c1=O`, the solubility (kinetic) was more than 34.5 µg/mL. The same measure for `CCOCCCn1c(=NC(C)=O)c(C#N)cc2c(=O)n3cccc(C)c3nc21`: 33 µg/mL (≈ 87 µM); for `CCOC(=O)C1CCCN(C(=O)c2cc(-c3ccco3)nc3ccccc23)C1` (stereo unspecified): more than 56.8 µg/mL.

As for `O=C(O)CN(CCc1ccccc1)S(=O)(=O)c1ccccc1`, the solubility (kinetic) is more than 47.9 µg/mL. For `FC(F)(F)c1cccc(CNC2CCN(Cc3ccccc3)CC2)c1`, the solubility (kinetic) amounted to 38.6 µg/mL (≈ 111 µM). Then `Cc1cc(S(=O)(=O)Nc2c(C)nn(C)c2C)c(Cl)cc1Cl`, with more than 52.2 µg/mL; and `Cc1ccc2nc(-c3ccc4c(c3)NC(=O)CO4)cn2c1`, with 3.2 µg/mL (≈ 11.5 µM); and `O=C(OCc1cc(Cl)cc2c1OCOC2)c1cccnc1Cl`, with 8.5 µg/mL (≈ 25 µM).

For `O=C(CCNS(=O)(=O)c1cccc(C(F)(F)F)c1)NCc1ccco1`, the solubility (kinetic) was more than 56.5 µg/mL. Then `O=S(=O)(NC1CC1)c1ccc(F)c(F)c1`, with more than 35 µg/mL. `CN(C)C(=O)Oc1ccc(Br)c2ccccc12` had a kinetic solubility of 35 µg/mL (≈ 119 µM). Then `COc1cccc(-c2c(C#N)c(N)nc3c2c(=O)nc2sccn23)c1`, with 23 µg/mL (≈ 65.8 µM). Take `Cc1nc(CNS(=O)(=O)c2cc([N+](=O)[O-])ccc2C)cs1`: the kinetic solubility was found to be 10.3 µg/mL (≈ 31.5 µM). Then `Nc1cc(=O)[nH]c(SCC(=O)Nc2ccccc2-c2ccccc2)n1`, with more than 52.9 µg/mL. For `O=C(CSc1ccccn1)N1CCNC1=O`, the solubility (kinetic) was more than 35.6 µg/mL. As to `CCOC(=O)c1ccc(Nc2ncnc3ccccc23)cc1.Cl`, the kinetic solubility stood at 1.7 µg/mL.

Values taken from PubChem BioAssay AID1996.
